Reference: publication doi:10.1101/2020.05.01.070730v2 (biorxiv, 2021)

Target: MutS (Pseudomonas aeruginosa, UniProt Q9HY08)
Assay: biochemical

MutS, sequence (Q9HY08 whole entry): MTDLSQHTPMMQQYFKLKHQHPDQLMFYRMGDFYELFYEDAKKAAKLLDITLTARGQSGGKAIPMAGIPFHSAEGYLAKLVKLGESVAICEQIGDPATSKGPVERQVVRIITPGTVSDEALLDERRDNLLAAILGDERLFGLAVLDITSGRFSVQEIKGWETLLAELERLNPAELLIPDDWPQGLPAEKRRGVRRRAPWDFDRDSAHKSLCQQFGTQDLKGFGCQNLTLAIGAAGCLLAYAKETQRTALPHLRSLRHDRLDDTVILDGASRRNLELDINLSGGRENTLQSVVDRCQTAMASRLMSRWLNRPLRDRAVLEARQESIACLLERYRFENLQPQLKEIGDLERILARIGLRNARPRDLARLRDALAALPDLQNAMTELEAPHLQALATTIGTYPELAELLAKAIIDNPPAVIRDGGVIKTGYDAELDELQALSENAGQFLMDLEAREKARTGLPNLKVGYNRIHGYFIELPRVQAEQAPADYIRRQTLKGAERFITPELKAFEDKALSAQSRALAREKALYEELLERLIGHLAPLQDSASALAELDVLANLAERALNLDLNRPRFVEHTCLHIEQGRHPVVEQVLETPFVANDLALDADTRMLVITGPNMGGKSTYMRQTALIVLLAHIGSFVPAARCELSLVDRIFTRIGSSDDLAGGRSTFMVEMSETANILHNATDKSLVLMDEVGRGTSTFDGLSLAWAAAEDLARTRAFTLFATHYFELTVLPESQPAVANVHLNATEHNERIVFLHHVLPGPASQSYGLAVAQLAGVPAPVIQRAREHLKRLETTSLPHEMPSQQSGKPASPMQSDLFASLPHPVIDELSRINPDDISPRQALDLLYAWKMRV

`Nc1ncnc2c1ncn2[C@@H]1O[C@H](COP(=O)(O)OP(=O)(O)OP(=O)(O)O)[C@@H](O)[C@H]1O` [ATP] was tested, and the EC50 was 618 ± 49 µM.
